The source of these data is patent publication US20230256047A1, “METHODS AND COMPOSITIONS FOR THE TREATMENT OF MUSCULAR DYSTROPHY” (STEALTH BIOTHERAPEUTICS INC., priority 2020, published 2023).

Square brackets hold non-standard residues; d marks the D form. Peptide text beside a SMILES is read from it. Dmt = Cc1cc(O)cc(C)c1C[C@H](N)C(=O)O; Orn = NCCC[C@H](N)C(=O)O

Common to all, as to format: in vivo
One assay deals with D2-mdx mice. Briefly: Echocardiography in D2-mdx mouse model. The settings on record: treated vs untreated D2-mdx mice; daily IP 1.0 or 5.0 mg/kg for 10-15 weeks. How it is done: Animals and Care: The DBA2 (a.k.a. D2-mdx) congenic strain of mdx mouse will be used for these studies. DBA/2J mice will be used as the wildtype control group. Animals will be obtained from appropriate sources (e.g. Jackson Labs). Animals will be housed at a density of up to five males or five females per cage under specific pathogen-free conditions in rooms with a 12-h light/12-h dark cycle at a temperature of 18-23° C. and 40-60% humidity. All experiments involving mice in this study will be performed in accordance with all applicable laws and regulations.
Echocardiography: In order to assess the cardiac function of mice in vivo, echocardiography will be performed on sedated mice. Mice will first be anesthetized (e.g. with 5% isoflurane mixed with 100% oxygen at 1.0 1/min flow) and then maintained under anesthesia (e.g. with 1.5% isoflurane/oxygen flow. Ophthalmic ointment can be placed on the eyes of the animals to prevent drying of the cornea while the mouse was anesthetized and tested. After anesthetic induction, the animals will be placed on a thermostatically controlled heated platform, where anesthesia can be maintained by delivery through a close-fitting facemask. A heating lamp can also be used to keep the heart rate and body temperature constant at physiological status during echocardiography.
During the examination, the animal’s heart rate will be monitored through the use of an electrocardiograph. The mouse’s heart rate and body temperature will be monitored continuously during the scanning. Echocardiography will be performed using an appropriate apparatus (e.g. Vevo770 ultrasound machine (VisualSonics, Toronto, Canada). The 2-D (B-mode), M-mode and Doppler images will be acquired from a modified parasternal long axis view, parasternal short axis view, suprasternal notch view and apical three-chamber view. The heart rate (BPM), fractional shortening, EF, stroke volume and cardiac output will be obtained for cardiac function assessment using measurements from the modified parasternal short axis view in the M-mode. Qualitative and quantitative measurements will be recorded using offline workstation software, and post-imaging analysis will be performed.
Study Design • 1. N=40-60 mice total assigned to following groups • a. Wildtype control - untreated, n=10-15 • b. mdx, vehicle treated, n=10-15 • c. mdx, daily IP elamipretide 1.0 mg/kg, n=10-15 • d. mdx, daily IP elamipretide 5.0 mg/kg, n=10-15 • 2. Dosing to begin at 4-6 weeks of age and continue for 10-15 weeks • a. Weekly retroorbital eye bleeds will be taken to provide serum for biomarker analysis • 3. In-life endpoints • a. Weekly body weight will be taken • b. Measurements of weekly voluntary wheel running will be determined • i. Total distance (m) • ii. Normalized distance (m/kg) • c. Echocardiogram (at least at week 18 & end of study but possibly more often, including possibly bi-monthly). The following parameters will be accessed. • i. Ejection fraction (%) • ii. Fractional shortening (%) • iii. Stroke volume (uL) • iv. Cardiac output (mL) • v. Heart rate (bpm) • 4. Endpoints post-necropsy • a. Serum analysis for creatine kinase • b. Histology of heart and inflammation and fibrosis

The test system of another assay is DMD KO rabbits. Briefly: Body weight and survival in DMD KO rabbit model. The conditions noted are these: treated DMD KO rabbits vs untreated control group of DMD KO rabbits; 0.5 to 5 mg/kg once daily i.p., approximately 3-5 months. An excerpt: Rabbits: The DMD KO rabbits used in this study will be obtained from the Laboratory Animal Center of Jilin University or prepared as described in Sui et al., Disease Models & Mechanisms 11 (2018). […] New Zealand rabbits (WT) will be used as controls.
Body Weight & Survival Curve: The body weight of age- and sex-matched WT and DMD KO rabbits will be measured biweekly. All data will be expressed as the mean±s.e.m., and a minimum of three individual animals of each genotype will be used in all experiments.
Study Design: At approximately 3-4 weeks of age, rabbits will be administered peptide (or a mixture of peptides) dissolved in sterile saline in dose(s) ranging from 0.5 to 5 mg/kg, once daily via intraperitoneal (i.p.) injection. The control group will be given placebo (sterile saline). Rabbits will be treated daily with peptide (or a mixture of peptides) or saline vehicle control, with treatment lasting approximately 3-5 months. For example, the peptide used could be a peptide of Formula A-1 (i.e. H-D-Arg-2′6′-Dmt-Lys-Phe-NH2). Echocardiograms will be collected monthly until animals are approximately 4-6 months of age or end of life. At the time of death, tissues will be harvested and variables described above will be collected.

Assay [1] relates to Subjects suspected of having or diagnosed as having DMD or BMD. Description: Treatment of cardiomyopathy in human subjects diagnosed with muscular dystrophy. The settings on record: daily subcutaneous 0.5-5.0 mg/kg/day or weekly intravenous 0.05-1.0 mg/kg/hr. for up to 4 hours. As for the experimental part: Subjects suspected of having or diagnosed as having DMD or BMD receive daily subcutaneous administration of H-D-Arg-2′6′-Dmt-Lys-Phe-NH2 or H-D-Arg-2′6′-Dmt-Lys-Phe-OH (e.g. with 0.5-5.0 mg/kg/day). Alternatively, subjects suspected of having or diagnosed as having DMD or BMD receive weekly intravenous administration of H-D-Arg-2′6′-Dmt-Lys-Phe-NH2 or H-D-Arg-2′6′-Dmt-Lys-Phe-OH (e.g. with 0.05-1.0 mg/kg/hr. for up to 4 hours). In some cases, the subjects could be co-administered a drug known to increase or correct the production of dystrophin in the subject, such as a phosphorodiamidate morpholino oligomer (PMO) such as Eteplirsen (Exondys 51®), Golodirsen (Vyondys 53™) or Casimersen (Amondys 45™) or a PPMO. Subjects will be regularly evaluated (e.g., weekly, bi-weekly, monthly, etc.) for the presence and/or severity of signs and symptoms of cardiomyopathy associated with DMD or BMD including, but not limited to, impaired left ventricular dynamics, e.g., reduced ejection fraction, reduced shortening fraction, reduced stroke volume, and/or reduced cardiac output, and elevated levels serum biomarkers associated with myocardial fibrosis, such as, e.g., elevated levels of carboxy terminal peptide of procollagen type I (PICP) and/or amino terminal propeptide of procollagen type III. […]

The subject of assay [2] is Subjects suspected of having or diagnosed as having DMD or BMD and taking corticosteroids and/or Eteplirsen, Golodirsen or Casimersen. Description: Treatment of cardiomyopathy in human subjects with DMD or BMD taking corticosteroids and/or Eteplirsen, Golodirsen or Casimersen. The conditions noted are these: for signs or symptoms of cardiomyopathy associated with DMD or BMD: human subjects taking corticosteroids and/or Eteplirsen, Golodirsen or Casimersen, daily subcutaneous 0.5-5.0 mg/kg/day or weekly intravenous 0.05-1.0 mg/kg/hr. for up to 4 hours; for effect of combination with corticosteroids and/or Eteplirsen, Golodirsen or Casimersen on signs or symptoms of cardiomyopathy: human subjects, compared to peptide alone, or corticosteroids and/or Eteplirsen, Golodirsen or Casimersen alone. As for the experimental part: Subjects suspected of having or diagnosed as having DMD or BMD and taking corticosteroids and/or Eteplirsen (Exondys 51®), Golodirsen (Vyondys 53™)or Casimersen (Amondys 45™) are separately, sequentially, or simultaneously subcutaneously administered a daily dose of H-D-Arg-2′6′-Dmt-Lys-Phe-NH2 or H-D-Arg-2′6′-Dmt-Lys-Phe-OH (e.g. with 0.5-5.0 mg/kg/day) or a weekly intravenous administration of H-D-Arg-2′6′-Dmt-Lys-Phe-NH2 or H-D-Arg-2′6′-Dmt-Lys-Phe-OH (e.g. with 0.05-1.0 mg/kg/hr. for up to 4 hours). Subjects will be regularly evaluated (e.g., weekly, bi-weekly, monthly, etc.) for the presence and/or severity of signs and symptoms of cardiomyopathy associated with DMD or BMD including, but not limited to, impaired left ventricular dynamics, e.g., reduced ejection fraction, reduced shortening fraction, reduced stroke volume, and/or reduced cardiac output, and elevated levels serum biomarkers associated with myocardial fibrosis, such as, e.g., elevated levels of carboxy terminal peptide of procollagen type I (PICP) and/or amino terminal propeptide of procollagen type III. Treatments are maintained at least until such a time as one or more signs or symptoms of cardiomyopathy associated with DMD or BMD are ameliorated or eliminated. The study may be conducted in a randomized withdrawal trial (e.g. randomized, double-blind, placebo-controlled withdrawal trial) to assess the impact of the peptide on the subjects followed by the impact of its withdrawal relative to a control group still receiving the peptide.

Turning to `Cc1cc(O)cc(C)c1C[C@H](NC(=O)[C@H](N)CCCNC(=N)N)C(=O)N[C@@H](CCCN)C(=O)N[C@@H](Cc1ccccc1)C(N)=O` [Compound A-5] (H-[dR][Dmt][Orn]F-NH2), in the assay with D2-mdx mice, the cardiac output entry is reported as “higher” and the “fractional shortening (FS)” value is on record as “higher”. Moreover, the lifespan entry in the assay on DMD KO rabbits was “statistically significant increase in lifespan”.
On to `Cc1cc(O)cc(C)c1C[C@H](NC(=O)[C@H](N)CCCNC(=N)N)C(=O)N[C@@H](CCCN)C(=O)N[C@@H](Cc1ccccc1)C(=O)O` [Compound A-6] (H-[dR][Dmt][Orn]F-OH), for which, in the assay on D2-mdx mice, the cardiac output entry is recorded as “higher” and the “fractional shortening (FS)” value is recorded as “higher”. Also, the lifespan entry in the assay with DMD KO rabbits is on record as “statistically significant increase in lifespan”.
For the compound `Cc1cc(O)cc(C)c1C[C@H](NC(=O)[C@H](N)CCCNC(=N)N)C(=O)N[C@@H](CCCCN)C(=O)N[C@@H](Cc1ccccc1)C(=O)O` [Compound A-2, H-D-Arg-2′6′-Dmt-Lys-Phe-OH] (H-[dR][Dmt]KF-OH), the “signs or symptoms of cardiomyopathy associated with DMD or BMD” value (shortened to “signs or symptoms … with DMD or BMD”) in assay [1] is “reduced severity or elimination”. In the assay on D2-mdx mice, the cardiac output entry is recorded as “higher” and the “fractional shortening (FS)” value is reported as “higher”. The lifespan result in the assay on DMD KO rabbits is listed as “statistically significant increase in lifespan”. In assay [2], the “signs or symptoms … with DMD or BMD” value is reported as “delayed or reduced severity or elimination” and the “effect of combination with corticosteroids and/or Eteplirsen, Golodirsen or Casimersen on signs or symptoms of cardiomyopathy” value is recorded as “synergistic effects”.
In the case of `Cc1cc(O)cc(C)c1C[C@H](NC(=O)[C@H](N)CCCNC(=N)N)C(=O)N[C@@H](CCCCN)C(=O)N[C@@H](Cc1ccccc1)C(N)=O` [Compound A-1, H-D-Arg-2′6′-Dmt-Lys-Phe-NH2] (H-[dR][Dmt]KF-NH2), the “signs or symptoms … with DMD or BMD” value in assay [1] is “reduced severity or elimination”. In the assay on D2-mdx mice, the cardiac output entry was “higher” and the “fractional shortening (FS)” value is reported as “higher”. Further, the lifespan result in the assay on DMD KO rabbits was “statistically significant increase in lifespan”. In assay [2], the “signs or symptoms … with DMD or BMD” value is “delayed or reduced severity or elimination” and the “effect of combination with corticosteroids and/or Eteplirsen, Golodirsen or Casimersen on signs or symptoms of cardiomyopathy” value is “synergistic effects”.
On to `Cc1cc(O)cc(C)c1C[C@H](NC(=O)[C@H](N)CCCNC(=N)N)C(=O)N[C@@H](CCCNC(=N)N)C(=O)N[C@@H](Cc1ccccc1)C(N)=O` [Compound A-3] (H-[dR][Dmt]RF-NH2), for which, in the assay with D2-mdx mice, the cardiac output entry was “higher” and the “fractional shortening (FS)” value is on record as “higher”. Also, the lifespan result in the assay on DMD KO rabbits is recorded as “statistically significant increase in lifespan”.
For the compound `Cc1cc(O)cc(C)c1C[C@H](NC(=O)[C@H](N)CCCNC(=N)N)C(=O)N[C@@H](CCCNC(=N)N)C(=O)N[C@@H](Cc1ccccc1)C(=O)O` [Compound A-4] (H-[dR][Dmt]RF-OH), in the assay with D2-mdx mice, the cardiac output entry is “higher” and the “fractional shortening (FS)” value is on record as “higher”. For the same compound, the lifespan result with DMD KO rabbits is given as “statistically significant increase in lifespan”.
For `N=C(N)NCCC[C@@H](N)C(=O)N[C@@H](Cc1ccc(O)cc1)C(=O)N[C@@H](CCCCN)C(=O)N[C@@H](Cc1ccccc1)C(N)=O` [Compound A-7] (H-[dR]YKF-NH2), in the assay on D2-mdx mice, the cardiac output result is listed as “higher” and the “fractional shortening (FS)” value is “higher”. For the same compound, the lifespan result in the assay with DMD KO rabbits is “statistically significant increase in lifespan”.
Consider `N=C(N)NCCC[C@@H](N)C(=O)N[C@@H](Cc1ccc(O)cc1)C(=O)N[C@@H](CCCCN)C(=O)N[C@@H](Cc1ccccc1)C(=O)O` [Compound A-8] (H-[dR]YKF-OH), for which, in the assay on D2-mdx mice, the cardiac output entry was “higher” and the “fractional shortening (FS)” value is listed as “higher”. In the assay with DMD KO rabbits, the lifespan result is “statistically significant increase in lifespan”.
